Activity calls are given as the source filed them. No cut-off for these calls is given here.
What was measured:
[1] = biological target: T1, C-X-C chemokine receptor type 4 (Homo sapiens, UniProt P61073); assay: Displacement of [125I]12G5 antibody from human wild type CXCR4 expressed in COS7 cells; type: cell-based, COS-7
[2] = test system: C-X-C chemokine receptor type 4 (Homo sapiens), P61073 [D171N]; assay: (§1) Displacement of [125I]12G5 antibody from transmembrane domain 4 of human CXCR4 D171N mutant expressed in COS7 cells; type: cell-based; details: COS-7
Chain of C-X-C chemokine receptor type 4 (Homo sapiens), P61073 [D171N] (P61073 whole entry D171N, the tested form may be a part): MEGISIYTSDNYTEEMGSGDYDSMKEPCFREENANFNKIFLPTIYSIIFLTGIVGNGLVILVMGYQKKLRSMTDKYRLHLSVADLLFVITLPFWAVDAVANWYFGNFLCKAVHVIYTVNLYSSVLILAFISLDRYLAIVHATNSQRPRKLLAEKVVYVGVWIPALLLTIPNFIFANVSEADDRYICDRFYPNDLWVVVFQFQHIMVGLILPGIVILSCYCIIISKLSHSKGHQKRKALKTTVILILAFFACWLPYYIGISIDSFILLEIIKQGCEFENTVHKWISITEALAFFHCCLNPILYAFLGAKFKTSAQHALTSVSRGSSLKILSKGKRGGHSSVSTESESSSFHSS

[3] = biological target: C-X-C chemokine receptor type 4 (Homo sapiens, UniProt P61073, D171N); assay: as §1; type: cell-based, COS-7
Chain of C-X-C chemokine receptor type 4 (Homo sapiens, UniProt P61073, D171N) (P61073 whole entry D171N, the tested form may be a part): as above

[4] = test system: C-X-C chemokine receptor type 4 (Homo sapiens), P61073 [F172A]; assay: (§2) Displacement of [125I]12G5 antibody from transmembrane domain 4 of human CXCR4 F172A mutant expressed in COS7 cells; type: cell-based; details: COS-7
Chain of C-X-C chemokine receptor type 4 (Homo sapiens), P61073 [F172A] (P61073 whole entry F172A, the tested form may be a part): as the sequence (P61073 whole entry D171N, the tested form may be a part) above, with N171D, F172A counted along it

[5] = biological target: C-X-C chemokine receptor type 4 (Homo sapiens, UniProt P61073, F172A); assay: as §2; type: cell-based, COS-7
Chain of C-X-C chemokine receptor type 4 (Homo sapiens, UniProt P61073, F172A) (P61073 whole entry F172A, the tested form may be a part): as the sequence (P61073 whole entry D171N, the tested form may be a part) above, with N171D, F172A counted along it

[6] = test system: C-X-C chemokine receptor type 4 (Homo sapiens), P61073 [F174A]; assay: (§3) Displacement of [125I]12G5 antibody from transmembrane domain 4 of human CXCR4 F174A mutant expressed in COS7 cells; type: cell-based; details: COS-7
Chain of C-X-C chemokine receptor type 4 (Homo sapiens), P61073 [F174A] (P61073 whole entry F174A, the tested form may be a part): as the sequence (P61073 whole entry D171N, the tested form may be a part) above, with N171D, F174A counted along it

[7] = biological target: C-X-C chemokine receptor type 4 (Homo sapiens, UniProt P61073, F174A); assay: as §3; type: cell-based, COS-7
Chain of C-X-C chemokine receptor type 4 (Homo sapiens, UniProt P61073, F174A) (P61073 whole entry F174A): as the sequence (P61073 whole entry D171N, the tested form may be a part) above, with N171D, F174A counted along it

[8] = test system: C-X-C chemokine receptor type 4 (Homo sapiens), P61073 [A175F]; assay: (§4) Displacement of [125I]12G5 antibody from extracellular loop 2 of human CXCR4 A175F mutant expressed in COS7 cells; type: cell-based; details: COS-7
Chain of C-X-C chemokine receptor type 4 (Homo sapiens), P61073 [A175F] (P61073 whole entry A175F): as the sequence (P61073 whole entry D171N, the tested form may be a part) above, with N171D, A175F counted along it

[9] = biological target: T2, C-X-C chemokine receptor type 4 (Homo sapiens, UniProt P61073, A175F); assay: as §4; type: cell-based, COS-7
T2 sequence (P61073 whole entry A175F, the tested form may be a part): as the sequence (P61073 whole entry D171N, the tested form may be a part) above, with N171D, A175F counted along it

[10] = test system: C-X-C chemokine receptor type 4 (Homo sapiens), P61073 [Y255A]; assay: (§5) Displacement of [125I]12G5 antibody from transmembrane domain 6 of human CXCR4 Y255A mutant expressed in COS7 cells; type: cell-based; details: COS-7
Chain of C-X-C chemokine receptor type 4 (Homo sapiens), P61073 [Y255A] (P61073 whole entry Y255A, the tested form may be a part): as the sequence (P61073 whole entry D171N, the tested form may be a part) above, with N171D, Y255A counted along it

[11] = biological target: T3, C-X-C chemokine receptor type 4 (Homo sapiens, UniProt P61073, Y255A); assay: as §5; type: cell-based, COS-7
T3 sequence (P61073 whole entry Y255A, the tested form may be a part): as the sequence (P61073 whole entry D171N, the tested form may be a part) above, with N171D, Y255A counted along it

[12] = test system: C-X-C chemokine receptor type 4 (Homo sapiens), P61073 [Y256A]; assay: (§6) Displacement of [125I]12G5 antibody from transmembrane domain 6 of human CXCR4 Y256A mutant expressed in COS7 cells; type: cell-based; details: COS-7
Chain of C-X-C chemokine receptor type 4 (Homo sapiens), P61073 [Y256A] (P61073 whole entry Y256A, the tested form may be a part): as the sequence (P61073 whole entry D171N, the tested form may be a part) above, with N171D, Y256A counted along it

[13] = biological target: C-X-C chemokine receptor type 4 (Homo sapiens, UniProt P61073, Y256A); assay: as §6; type: cell-based, COS-7
Chain of C-X-C chemokine receptor type 4 (Homo sapiens, UniProt P61073, Y256A) (P61073 whole entry Y256A, the tested form may be a part): as the sequence (P61073 whole entry D171N, the tested form may be a part) above, with N171D, Y256A counted along it

[14] = test system: C-X-C chemokine receptor type 4 (Homo sapiens), P61073 [I284A]; assay: (§7) Displacement of [125I]12G5 antibody from transmembrane domain 7 of human CXCR4 I284A mutant expressed in COS7 cells; type: cell-based; details: COS-7
Chain of C-X-C chemokine receptor type 4 (Homo sapiens), P61073 [I284A] (P61073 whole entry I284A, the tested form may be a part): as the sequence (P61073 whole entry D171N, the tested form may be a part) above, with N171D, I284A counted along it

[15] = biological target: T4, C-X-C chemokine receptor type 4 (Homo sapiens, UniProt P61073, I284A); assay: as §7; type: cell-based, COS-7
T4 sequence (P61073 whole entry I284A, the tested form may be a part): as the sequence (P61073 whole entry D171N, the tested form may be a part) above, with N171D, I284A counted along it

[16] = test system: C-X-C chemokine receptor type 4 (Homo sapiens), P61073 [I259W]; assay: (§8) Displacement of [125I]12G5 antibody from transmembrane domain 6 of human CXCR4 I259W mutant expressed in COS7 cells; type: cell-based; details: COS-7
Chain of C-X-C chemokine receptor type 4 (Homo sapiens), P61073 [I259W] (P61073 whole entry I259W, the tested form may be a part): as the sequence (P61073 whole entry D171N, the tested form may be a part) above, with N171D, I259W counted along it

[17] = biological target: C-X-C chemokine receptor type 4 (Homo sapiens, UniProt P61073, I259W); assay: as §8; type: cell-based, COS-7
Chain of C-X-C chemokine receptor type 4 (Homo sapiens, UniProt P61073, I259W) (P61073 whole entry I259W): as the sequence (P61073 whole entry D171N, the tested form may be a part) above, with N171D, I259W counted along it

[18] = biological target: T1, C-X-C chemokine receptor type 4; assay: Antagonist activity at human wild type CXCR4 expressed in COS7 cells coexpressing G protein Gqi4myr assessed as inhibition of CXCL12-induced phosphatidylinositol turnover; type: functional, cell-based, COS-7
[19] = test system: C-X-C chemokine receptor type 4 (Homo sapiens), P61073 [A175F]; assay: (§9) Antagonist activity at human CXCR4 A175F mutant expressed in COS7 cells coexpressing G protein Gqi4myr assessed as inhibition of CXCL12-induced phosphatidylinositol turnover; type: functional, cell-based; details: COS-7
[20] = biological target: T2, C-X-C chemokine receptor type 4; assay: as §9; type: functional, cell-based, COS-7
[21] = test system: C-X-C chemokine receptor type 4 (Homo sapiens), P61073 [Q200W]; assay: (§10) Antagonist activity at human CXCR4 Q200W mutant expressed in COS7 cells coexpressing G protein Gqi4myr assessed as inhibition of CXCL12-induced phosphatidylinositol turnover; type: functional, cell-based; details: COS-7
Chain of C-X-C chemokine receptor type 4 (Homo sapiens), P61073 [Q200W] (P61073 whole entry Q200W): as the sequence (P61073 whole entry D171N, the tested form may be a part) above, with N171D, Q200W counted along it

[22] = biological target: C-X-C chemokine receptor type 4 (Homo sapiens, UniProt P61073, Q200W); assay: as §10; type: functional, cell-based, COS-7
Chain of C-X-C chemokine receptor type 4 (Homo sapiens, UniProt P61073, Q200W) (P61073 whole entry Q200W): as the sequence (P61073 whole entry D171N, the tested form may be a part) above, with N171D, Q200W counted along it

[23] = test system: C-X-C chemokine receptor type 4 (Homo sapiens), P61073 [H203A]; assay: (§11) Antagonist activity at human CXCR4 H203A mutant expressed in COS7 cells coexpressing G protein Gqi4myr assessed as inhibition of CXCL12-induced phosphatidylinositol turnover; type: functional, cell-based; details: COS-7
Chain of C-X-C chemokine receptor type 4 (Homo sapiens), P61073 [H203A] (P61073 whole entry H203A): as the sequence (P61073 whole entry D171N, the tested form may be a part) above, with N171D, H203A counted along it

[24] = biological target: C-X-C chemokine receptor type 4 (Homo sapiens, UniProt P61073, H203A); assay: as §11; type: functional, cell-based, COS-7
Chain of C-X-C chemokine receptor type 4 (Homo sapiens, UniProt P61073, H203A) (P61073 whole entry H203A): as the sequence (P61073 whole entry D171N, the tested form may be a part) above, with N171D, H203A counted along it

[25] = test system: C-X-C chemokine receptor type 4 (Homo sapiens), P61073 [Y255A]; assay: (§12) Antagonist activity at human CXCR4 Y255A mutant expressed in COS7 cells coexpressing G protein Gqi4myr assessed as inhibition of CXCL12-induced phosphatidylinositol turnover; type: functional, cell-based; details: COS-7
[26] = biological target: T3, C-X-C chemokine receptor type 4; assay: as §12; type: functional, cell-based, COS-7
[27] = test system: C-X-C chemokine receptor type 4 (Homo sapiens), P61073 [I259A]; assay: (§13) Antagonist activity at transmembrane domain 6 of human CXCR4 I259A mutant expressed in COS7 cells coexpressing G protein Gqi4myr assessed as inhibition of CXCL12-induced phosphatidylinositol turnover; type: functional, cell-based; details: COS-7
Chain of C-X-C chemokine receptor type 4 (Homo sapiens), P61073 [I259A] (P61073 whole entry I259A, the tested form may be a part): as the sequence (P61073 whole entry D171N, the tested form may be a part) above, with N171D, I259A counted along it

[28] = biological target: C-X-C chemokine receptor type 4 (Homo sapiens, UniProt P61073, I259A); assay: as §13; type: functional, cell-based, COS-7
Chain of C-X-C chemokine receptor type 4 (Homo sapiens, UniProt P61073, I259A) (P61073 whole entry I259A): as the sequence (P61073 whole entry D171N, the tested form may be a part) above, with N171D, I259A counted along it

[29] = test system: C-X-C chemokine receptor type 4 (Homo sapiens), P61073 [H281A]; assay: (§14) Antagonist activity at human CXCR4 H281A mutant expressed in COS7 cells coexpressing G protein Gqi4myr assessed as inhibition of CXCL12-induced phosphatidylinositol turnover; type: functional, cell-based; details: COS-7
Chain of C-X-C chemokine receptor type 4 (Homo sapiens), P61073 [H281A] (P61073 whole entry H281A): as the sequence (P61073 whole entry D171N, the tested form may be a part) above, with N171D, H281A counted along it

[30] = biological target: C-X-C chemokine receptor type 4 (Homo sapiens, UniProt P61073, H281A); assay: as §14; type: functional, cell-based, COS-7
Chain of C-X-C chemokine receptor type 4 (Homo sapiens, UniProt P61073, H281A) (P61073 whole entry H281A): as the sequence (P61073 whole entry D171N, the tested form may be a part) above, with N171D, H281A counted along it

[31] = test system: C-X-C chemokine receptor type 4 (Homo sapiens), P61073 [I284A]; assay: (§15) Antagonist activity at human CXCR4 I284A mutant expressed in COS7 cells coexpressing G protein Gqi4myr assessed as inhibition of CXCL12-induced phosphatidylinositol turnover; type: functional, cell-based; details: COS-7
[32] = biological target: T4, C-X-C chemokine receptor type 4; assay: as §15; type: functional, cell-based, COS-7
[33] = test system: C-X-C chemokine receptor type 4 (Homo sapiens), P61073 [H281A]; assay: Antagonist activity at human CXCR4 H281A mutant expressed in U87.CD4 cells assessed as inhibition of CXCL12-induced calcium mobilization; type: functional, cell-based
[34] = test system: Human immunodeficiency virus 1; assay: Antiviral activity against HIV1 NDK infected in U87.CD4 cells expressing human wild type CXCR4; type: functional, organism-based; details: Human immunodeficiency virus 1, NDK
[35] = test system: Human immunodeficiency virus 1; assay: Antiviral activity against HIV1 NDK infected in U87.CD4 cells expressing human CXCR4 D262N mutant; type: functional, organism-based; details: Human immunodeficiency virus 1, NDK
[36] = test system: Human immunodeficiency virus 1; assay: Antiviral activity against HIV1 NL43 infected in U87.CD4 cells expressing human CXCR4 D262N mutant; type: functional, organism-based; details: Human immunodeficiency virus 1, NL43, U87.CD4
[37] = test system: Human immunodeficiency virus 1; assay: Antiviral activity against HIV1 NL43 infected in U87.CD4 cells expressing human CXCR4 H281A mutant; type: functional, organism-based; details: Human immunodeficiency virus 1, NL43, U87.CD4
[38] = test system: Human immunodeficiency virus 1; assay: Antiviral activity against HIV1 NDK infected in U87.CD4 cells expressing human CXCR4 H281A mutant; type: functional, organism-based; details: Human immunodeficiency virus 1, NDK
[39] = test system: Human immunodeficiency virus 1; assay: Antiviral activity against HIV1 clinical isolate 10 infected in U87.CD4 cells expressing human CXCR4 H281A mutant; type: functional, organism-based; details: Human immunodeficiency virus 1, U87.CD4
[40] = test system: Human immunodeficiency virus 1; assay: Antiviral activity against HIV1 NL43 infected in U87.CD4 cells expressing human CXCR4 E288A mutant; type: functional, organism-based
[41] = test system: Human immunodeficiency virus 1; assay: Antiviral activity against HIV1 clinical isolate 10 infected U87.CD4 cells expressing human CXCR4 E288A mutant; type: functional, organism-based; details: Human immunodeficiency virus 1, U87.CD4

T1 sequence (P61073 whole entry, the tested form may be a part): as the sequence (P61073 whole entry D171N, the tested form may be a part) above, with N171D counted along it

With `c1ccc(CNCc2ccc(CN3CCCNCCNCCCNCC3)cc2)nc1` the Ki [1] was 110 nM, the logKi ([1]; COS-7) was -6.95 and the logKi [2] was -5.49. It also gave a Ki [3] of 3200 nM, a logKi [4] of -6.25 and a Ki [5] of 560 nM. It also gave a logKi [6] of -6.01, a Ki [7] of 980 nM and a logKi [8] of -3.67. For the same molecule, the Ki [9] was 215000 nM, the logKi [10] was -6.35 and the Ki [11] was 450 nM. It also gave a logKi [12] of -6.5, a Ki [13] of 320 nM and a logKi [14] of -4.34. It also gave a Ki [15] of 46000 nM, a logKi [16] of -4.75 and a Ki [17] of 18000 nM. It also gave a Ki [18] of 10 nM, a logIC50 ([18]; COS-7) of -8.01 and a logIC50 [19] of -5.89. For the same molecule, the Ki [20] was 1300 nM, the logIC50 [21] was -6.65 and the Ki [22] was 220 nM. The logIC50 [23] was -7.43, the Ki [24] was 40 nM and the logIC50 [25] was -7.79. The Ki [26] was 20 nM, the logIC50 [27] was -7.55 and the Ki [28] was 30 nM. It also gave a logIC50 [29] of -5.8, a Ki [30] of 1600 nM and a logIC50 [31] of -7.5. For the same molecule, the Ki [32] was 30 nM, the Activity [33] was “inactive” and the IC50 [34] was 2700 nM. The IC50 [35] was 5380 nM, the IC50 [36] was 38 nM and the IC50 [37] was greater than 1100 nM. The IC50 [38] was 37 nM, the IC50 [39] was 1950 nM and the Activity [40] was “inactive”. The IC50 [41] was 1570 nM.
